Test results published in patent publication US20100159039A1, “ANTIVIRAL AGENTS CONTAINING A FERMENTATION PRODUCT OF GARLIC BY LACTIC ACID BACTERIA” (Liisna Inc., priority 2008, published 2010).
≈ marks a conversion by molar mass, not a printed value. Like-named read-outs stand apart in the source and are kept apart here.

Assays:
[1] = test system: influenza virus Type H1N1 (A/Taiwan/1/86); assay: CPE inhibition assay in MDCK cells, influenza A/H1N1; format: cell-based; settings: for EC50: 72 h, MDCK cells, 100 CCID50, three days, read-out: Antiviral activity (EC50) Taiwan A/H1N1
[2] = test system: influenza virus Type H3N2 (A/Seoul/11/88); assay: CPE inhibition assay in MDCK cells, influenza A/H3N2; format: cell-based; settings: for EC50: 72 h, MDCK cells, 100 CCID50, three days, read-out: Antiviral activity (EC50) Seoul A/H3N2
[3] = test system: influenza virus Type B (B/Panama/45/90); assay: CPE inhibition assay in MDCK cells, influenza B; format: cell-based; settings: for EC50: Influenza B virus, MDCK, 72 h, read-out: Antiviral activity (EC50) Panama B
in vitro = settings: dog
[4] = test system: MDCK (Madin-Darby canine kidney) cells

Row | SMILES | EC50 [1] [µg/mL] | Selectivity index (SI, CC50/EC50) Seoul A/H3N2 [2] | EC50 [2] [µg/mL] | EC50 [3] [µg/mL] | CC50 (in vitro) [µg/mL] | Selectivity index (SI, CC50/EC50) Taiwan A/H1N1 ([1]; CC50/EC50) | Selectivity index (SI, CC50/EC50) Seoul A/H3N2 ([2]; CC50/EC50) | Selectivity index (SI, CC50/EC50) Panama B [3] | Selectivity index (SI, CC50/EC50) Taiwan A/H1N1 [1] | Toxicity CC50 (50% cytotoxic concentration) [4]
1 | NC12CC3CC(CC(C3)C1)C2 [Amantadine, amantadine] | > 100 | >204.1 | 0.49 (≈ 3.24 µM) | > 100 | > 100 |  |  |  |  | 
2 | CCOC(=O)C1=C[C@@H](OC(CC)CC)[C@H](NC(C)=O)[C@@H](N)C1 [Oseltamivir, oseltamivir] | 16.4 (≈ 52.3 µM) |  | 0.49 (≈ 1.57 µM) | 10.1 (≈ 32.5 µM) | > 100 | >6.1 | >202.4 | >9.9 |  | 
3 | NC(=O)c1ncn([C@@H]2O[C@H](CO)[C@@H](O)[C@H]2O)n1 [Ribavirin, ribavirin] | 6.54 (≈ 26.8 µM) | >34.7 | 2.88 (≈ 11.8 µM) | 2.29 (≈ 9.38 µM) | > 100 |  |  | >43.7 | >15.3 | 
4 | CC(O)C(=O)O (centres unmarked) [Lactic acid, lactic acid] |  |  |  |  |  | <1.00 | <1.00 | <1.00 |  | 0.014
